Measurements as given in patent US20160136123A1, “TREATMENT OF AUTOPHAGY-RELATED DISORDERS” (STC.UNM, priority 2013, published 2016).

Assays:
[1] = system: HeLa cells stably expressing mRFP-GFP-LC3; experiment: High content imaging of LC3 puncta after oleic acid pretreatment; assay type: cell-based, Human; conditions: 500 μM BSA-oleic acid 20 h, then full medium or EBSS starvation 90 min
Experimental: Panals (A) and (B): HeLa cells stably expressing mRFP-GFP-LC3 were treated for 20 h with BSA alone (BSA) or with BSA-oleic acid (OA; 500 μM OA) and then starved in EBSS for 90 min (Starv) or incubated in full medium (Full). A, Visualization of lipid droplet accumulation. Cells were treated as in A and lipid droplets stained with Bodipy 493/503. B, High content image analysis. Program (iDev)-assigned masks: blue outline, valid primary objects (cells); green mask, GFP puncta. (C) number of GFP+ puncta per cell from experiments illustrated in A. (D) RFP+ puncta per cell from experiments illustrated in A. High content analysis data: means±s.e. (n=3, where n represents separate experiments; each experimental point in separate experiments contained >500 cells identified by the program as valid primary objects); *, p<0.05 (t-test). (E) HeLa cells were treated with 0, 100, 500 or 1000 μM oleic acid (OA) using BSA as a carrier (BSA-OA) for 20 h, followed by 90 min starvation in EBSS with or without Bafilomycin A1 (BafA1), and LC3-II/actin ratios determined by immunoblotting and densitometry. (F) HeLa cells were treated for 20 h with BSA alone or with BSA-OA (500 μM OA), followed by starvation in EBSS for 90 min with or without Bafilomycin A1 (BafA1) and LC3-II/actin ratios determined by immunoblotting and densitometry. Immunobloting data: means means±s.e., *, p<0.05 (t-test). […]

HeLa cells = experiment: LC3-II conversion immunoblot (LC3-II/actin) with or without bafilomycin A1 after oleic acid pretreatment and starvation; assay type: cell-based, Human
Experimental: Panals (A) and (B): HeLa cells stably expressing mRFP-GFP-LC3 were treated for 20 h with BSA alone (BSA) or with BSA-oleic acid (OA; 500 μM OA) and then starved in EBSS for 90 min (Starv) or incubated in full medium (Full). A, Visualization of lipid droplet accumulation. Cells were treated as in A and lipid droplets stained with Bodipy 493/503. B, High content image analysis. Program (iDev)-assigned masks: blue outline, valid primary objects (cells); green mask, GFP puncta. (C) number of GFP+ puncta per cell from experiments illustrated in A. (D) RFP+ puncta per cell from experiments illustrated in A. High content analysis data: means±s.e. (n=3, where n represents separate experiments; each experimental point in separate experiments contained >500 cells identified by the program as valid primary objects); *, p<0.05 (t-test). (E) HeLa cells were treated with 0, 100, 500 or 1000 μM oleic acid (OA) using BSA as a carrier (BSA-OA) for 20 h, followed by 90 min starvation in EBSS with or without Bafilomycin A1 (BafA1), and LC3-II/actin ratios determined by immunoblotting and densitometry. (F) HeLa cells were treated for 20 h with BSA alone or with BSA-OA (500 μM OA), followed by starvation in EBSS for 90 min with or without Bafilomycin A1 (BafA1) and LC3-II/actin ratios determined by immunoblotting and densitometry. Immunobloting data: means means±s.e., *, p<0.05 (t-test).
Addition of oleic acid (OA) is commonly used to increase cellular LD content. […] The enhancement was detected at both autophagy initiation stage (FIG. 1C; GFP-LC3) and autophagosomal maturation (FIG. 1D; mRFP-GFP), as determined by the acidification-sensitive GFP and acidification-insenstive mRFP probes used to distinguish early autophagosomes and autolysosomes, respectively. […]
Antibodies against endogenous proteins LC3 (MBL), P62 (BD Transduction), Atg16L1 (Cosmo Bio) were used for indirect immunofluorescence analysis. […] SlideBook morphometric analysis software 5.0 (Intelligent Imaging Innovations) was used to quantify the colocalization between Atg16L1 or DAG and lipid droplets. […]

autophagic maturation = conditions: e.g. 1 mM, reference [27]; cited from earlier work
[2] = system: HeLa cells stably expressing mRFP-GFP-LC3B; experiment: TRIM family screen control: GFP-LC3B puncta area after pp242; assay type: cell-based, Human; conditions: pp242 for 2 h, versus vehicle
Excerpt: Referring to FIG. 1A/A HeLa cells stably expressing mRFP-GFP-LC3B were subjected to TRIM knockdowns, treated with pp242, and imaged to detect nuclear stain (blue) and GFP signal (green). Top, non-targeting siRNA-transfected cells treated with carrier (DMSO) or pp242. White lines, cell borders. Red, LC3B puncta borders. Bottom, representative images of cells subjected to knockdown of TRIM45 and TRIM2, both treated with pp242. (B) Measurement of average area of GFP-LC3B area per cell from cells treated as in (A) (data from multiple 96-well plates with identical siRNA arrangements represent means and ±SE).
Cells were exposed to virus at 4° C. for 1 hour to allow binding but not entry. […] Samples were prepared for analysis of p24, reverse transcriptase, or proviral DNA. […] HIV-1 RT was determined according to the manufacturer's protocol (Enz Chek, Invitrogen). HIV-1 proviral DNA was quantified as previously described (Campbell et al., 2004). […]
HeLa cells stably expressing mRFP-GFP-LC3B were cultured in 96-well plates containing siRNAs against 67 human TRIMs and transfection reagent (Dharmacon). […] Automated image collection of >500 cells (distributed over 49 or fewer fields per well per siRNA knockdown per plate) were machine-analyzed using preset scanning parameters and object mask definition (iDEV software). […] When results were expressed as puncta area per cell, the units corresponded to μm^2/cell.

[3] = system: 293T cells and HeLa cells; experiment: TRIM5α overexpression: LC3-II abundance (bafilomycin A1 flux assay) and LC3 puncta by high content analysis; assay type: cell-based, Human; conditions: GFP-tagged protein overexpressed, compared with GFP alone; with or without bafilomycin A1
Excerpt: FIG. 2A/A illustrates mapping of the p62/Sequestosome 1 region interacting with RhTRIM5α. Schematic (left): domain organization of p62 and deletion/point mutation constructs employed to analyze interactions with RhTRIM5α (right panel). TR, TRIM5α and TRAF6 binding region; NLS, nuclear localization signal; NES, nuclear export signal; LIR, LC3-interacting region; KIR, KEAP1-interacting region. Analysis (right): Myc-RhTRIM5α was radiolabeled with [^35S] methionine by in vitro translation and analyzed by GST pulldown assays with GST-p62 fusion proteins. Top, autoradiogram. Bottom, Coomassie Brilliant Blue (CBB)-stained SDS-polyacrylamide gel with GST-p62 proteins. (B) Effects of TRIM5α knockdown in HeLa cells on GFP-LC3 puncta (area/cell) under basal (DMSO control) and autophagy-inducing (pp242) conditions. HuT5a, human TRIM5α; Scr, Scrambled control. […]
We first tested p62 and TRIM5α interaction (FIG. S2A) and co-localization (FIG. S2B), and mapped the TRIM5α-binding domain on p62 to the region demarcated by residues 170-256 (FIG. 2A). […] When TRIM5α was knocked down, fewer LC3 puncta were detected ([…]) and LC3-II yields (FIG. 2A/B,C) upon induction with pp242 were reduced. […] In these experiments, high content analysis was used to differentiate GFP-TRIM5α-transfected or GFP-transfected cells from untransfected cells based on their green fluorescence. […]

CCCCCCCC/C=C\CCCCCCCC(=O)O [OA, oleic acid]
effect of increase in lipid droplets following OA pretreatment on autophagy (GFP+ and RFP+ LC3 puncta per cell) [1]: enhanced basal and induced autophagy
OA concentration optimal for enhancing starvation-induced autophagy (LC3-II/actin titration) (HeLa cells; 0, 100, 500 or 1000 μM OA 20 h, 90 min starvation in EBSS with or without bafilomycin A1): 500 µM
effect of OA pretreatment in the bafilomycin A1 inhibition assay (LC3-II/actin) (HeLa cells; 500 μM BSA-OA 20 h, EBSS 90 min with or without bafilomycin A1): enhanced cellular capacity for initiation of autophagy upon starvation
effect of 1 mM OA on starvation-induced autophagy (LC3-II/actin titration) (HeLa cells; 1 mM OA 20 h, 90 min starvation in EBSS): either a plateau or potentially inhibitory effects on autophagy
effect of high concentrations of OA on autophagic maturation (autophagic maturation): inhibitory to autophagic maturation

CC(C)n1nc(-c2cc3cc(O)ccc3[nH]2)c2c(N)ncnc21 [pp242]
induction of GFP-LC3B puncta area [2]: 17 fold

C15A mutant of RhTRIIVI5α: catalytically inactive (E3 ligase) C15A mutant of rhesus TRIM5α
effect of TRIM5α overexpression on autophagy (LC3-II, LC3 puncta) [3]: induced autophagy comparably to wt RhTRIM5α
